Results taken from patent US10934282B2, “Heteroaromatic modulators of the retinoid-related orphan receptor gamma” (LEO PHARMA A/S, priority 2016, dated 2021).
Structures can show the parent of a compound that is named as a salt.

Key:
[1] = molecular target: T1, human RORgt nuclear receptor (RORgT ligand binding domain protein) (Homo sapiens, UniProt P51449); assay: ROR-gamma binding assay (Scintillation Proximity Assay, displacement of [3H]-25-hydroxycholesterol); settings: EC50, SPA, 15 nM [3H]-25-Hydroxycholesterol, RORgT LBD 12 nM
T1 construct: purchased Proteros Biostructures GmbH
T1 sequence (P51449 with tags, fused parts or gaps): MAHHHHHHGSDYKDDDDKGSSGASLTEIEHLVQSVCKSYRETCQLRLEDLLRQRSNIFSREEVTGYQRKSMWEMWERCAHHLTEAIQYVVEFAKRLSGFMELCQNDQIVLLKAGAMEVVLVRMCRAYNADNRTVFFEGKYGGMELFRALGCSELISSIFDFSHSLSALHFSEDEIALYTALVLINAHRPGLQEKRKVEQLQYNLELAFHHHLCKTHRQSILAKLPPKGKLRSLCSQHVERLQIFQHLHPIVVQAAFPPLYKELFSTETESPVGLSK
Outline: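 SPA competition of compound against 15 nM [3H]-25-hydroxycholesterol for His/FLAG-tagged human RORγt LBD (12 nM) on His-tag PVT beads, in 50 mM HEPES pH 7.4, 150 mM NaCl, 5 mM MgCl2, 0.1% BSA, 0.5% DMSO. 30 min preincubation, then ≥4 h at room temperature in darkness; EC50 by four-parameter fit.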

[2] = tested on: IL-17A in Human peripheral mononuclear cells; assay: Human PBMC IL-17A assay; type: cell-based; settings: 72 h, EC50, antiCD3/antiCD28-coated beads, 3 days, alpha-LISA
Outline: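 Cryopreserved human PBMC (130,000/well) stimulated with anti-CD3/anti-CD28-coated beads (1 cell per bead) in RPMI-1640 with 10% bovine calf serum, compounds at 0.1% DMSO, for 3 days. Supernatant IL-17A measured by AlphaLISA, viability by PrestoBlue; EC50 from 4-parameter non-linear regression.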

[3] = tested on: IL-17A levels in human peripheral blood; assay: tissue or blood; type: cell-based; settings: 72 h, read-out: Human Whole blood IL-17A (nM)

SMILES	EC50 [1] [nM]	EC50 [2] [nM]	EC50 [3] [nM]
Cc1cc(CN2CCN(C(=O)OC(C)C)[C@@H](C)C2)c(C)c(Nc2nnc([C@@H](N)[C@@H](C)O)o2)c1 [Example 41, isopropyl (2S)-4-[[3-[[5-[(1S,2R)-1-amino-2-hydroxy-propyl]-1,3,4-oxadiazol-2-yl]amino]-2,5-dimethyl-phenyl]methyl]-2-methyl-piperazine-1-carboxylate]	91.1	215	373
Cc1cc(CN2CCN(C(=O)OC(C)C)[C@@H](C)C2)c(C)c(Nc2nnc(CC#N)o2)c1 [Example 42, isopropyl (2S)-4-[[3-[[5-(cyanomethyl)-1,3,4-oxadiazol-2-yl]amino]-2,5-dimethyl-phenyl]methyl]-2-methyl-piperazine-1-carboxylate]	48	34.2	359
Cc1c(CN2CCN(C(=O)OC(C)C)[C@@H](C)C2)cc(C(F)F)cc1Nc1nnc([C@H](C)O)o1 [Example 43, isopropyl (2S)-4-[[5-(difluoromethyl)-3-[[5-[(1S)-1-hydroxyethyl]-1,3,4-oxadiazol-2-yl]amino]-2-methyl-phenyl]methyl]-2-methyl-piperazine-1-carboxylate]	53.9	63.5	332
Cc1c(CN2CCN(C(=O)OC(C)C)[C@@H](C)C2)cc(Cl)cc1Nc1nnc(C2CCCOC2)o1 (stereo partly drawn) [Example 44, isopropyl (2S)-4-[[5-chloro-2-methyl-3-[(5-tetrahydropyran-3-yl-1,3,4-oxadiazol-2-yl)amino]phenyl]methyl]-2-methyl-piperazine-1-carboxylate]	22.7	26	330
Cc1c(CN2CCN(C(=O)OC(C)C)[C@@H](C)C2)cc(Cl)cc1Nc1nnc(C2(O)CC2)o1 [Example 45, isopropyl (2S)-4-[[5-chloro-3-[[5-(1-hydroxycyclopropyl)-1,3,4-oxadiazol-2-yl]amino]-2-methyl-phenyl]methyl]-2-methyl-piperazine-1-carboxylate]	42	39.9	330
Cc1c(CN2CCN(C(=O)OC(C)C)[C@@H](C)C2)cc(Cl)cc1Nc1nnc(C2(CO)CC2)o1 [Example 46, isopropyl (2S)-4-[[5-chloro-3-[[5-[1-(hydroxymethyl)cyclopropyl]-1,3,4-oxadiazol-2-yl]amino]-2-methyl-phenyl]methyl]-2-methyl-piperazine-1-carboxylate]	37.1	103	322
Cc1c(CN2CCN(C(=O)OC(C)C)[C@@H](C)C2)cc(Cl)cc1Nc1nnc(C(O)C(F)(F)F)o1 (stereo partly drawn) [Example 47, isopropyl (2S)-4-[[5-chloro-2-methyl-3-[[5-(2,2,2-trifluoro-1-hydroxy-ethyl)-1,3,4-oxadiazol-2-yl]amino]phenyl]methyl]-2-methyl-piperazine-1-carboxylate]	26.6	63.2	307
Cc1c(CN2CCN(C(=O)OC(C)C)[C@@H](C)C2)cc(Cl)cc1Nc1nnc(C2CCNC2=O)o1 (stereo partly drawn) [Example 48, isopropyl (2S)-4-[[5-chloro-2-methyl-3-[[5-(2-oxopyrrolidin-3-yl)-1,3,4-oxadiazol-2-yl]amino]phenyl]methyl]-2-methyl-piperazine-1-carboxylate]	37.2	191	296
Cc1cc(CN2CCN(C(=O)OC(C)C)[C@@H](C)C2)c(C)c(Nc2nnc([C@H](C)N)o2)c1 [Example 49, isopropyl (2S)-4-[[3-[[5-[(1S)-1-aminoethyl]-1,3,4-oxadiazol-2-yl]amino]-2,5-dimethyl-phenyl]methyl]-2-methyl-piperazine-1-carboxylate]	90.5	218	275
Cc1c(CN2CCN(C(=O)OC(C)C)[C@@H](C)C2)cc(C(F)F)cc1Nc1nnc([C@@H](C)O)o1 [Example 50, isopropyl (2S)-4-[[5-(difluoromethyl)-3-[[5-[(1R)-1-hydroxyethyl]-1,3,4-oxadiazol-2-yl]amino]-2-methyl-phenyl]methyl]-2-methyl-piperazine-1-carboxylate]	31.6	86.5	272
Cc1cc(CN2CCN(C(=O)OC(C)C)[C@@H](C)C2)c(C)c(Nc2nnc(C3CNC(=O)C3)o2)c1 (stereo partly drawn) [Example 51, isopropyl (2S)-4-[[2,5-dimethyl-3-[[5-(5-oxopyrrolidin-3-yl)-1,3,4-oxadiazol-2-yl]amino]phenyl]methyl]-2-methyl-piperazine-1-carboxylate]	64.4	216	266
Cc1cc(CN2CCN(C(=O)OC(C)C)[C@@H](C)C2)c(C)c(Nc2nnc([C@@H]3CNC(=O)O3)o2)c1 [Example 52, isopropyl (2S)-4-[[2,5-dimethyl-3-[[5-[(5S)-2-oxooxazolidin-5-yl]-1,3,4-oxadiazol-2-yl]amino]phenyl]methyl]-2-methyl-piperazine-1-carboxylate]	42.1	134	256
Cc1c(CN2CCN(C(=O)OC(C)C)[C@@H](C)C2)cc(Cl)cc1Nc1nnc([C@@H]2CC(=O)N2)o1 [Example 53, isopropyl (2S)-4-[[5-chloro-2-methyl-3-[[5-[(2S)-4-oxoazetidin-2-yl]-1,3,4-oxadiazol-2-yl]amino]phenyl]methyl]-2-methyl-piperazine-1-carboxylate]	68.2	93.9	247
Cc1cc(CN2CCN(C(=O)OC(C)C)[C@@H](C)C2)c(C)c(Nc2nnc(-c3nonc3C)o2)c1 [Example 54, isopropyl (2S)-4-[[2,5-dimethyl-3-[[5-(4-methyl-1,2,5-oxadiazol-3-yl)-1,3,4-oxadiazol-2-yl]amino]phenyl]methyl]-2-methyl-piperazine-1-carboxylate]	16.3	28.1	176
Cc1cc(CN2CCN(C(=O)OC(C)C)[C@@H](C)C2)c(C)c(Nc2nnc([C@@H]3COCCN3)o2)c1 [Example 55, isopropyl (2S)-4-[[2,5-dimethyl-3-[[5-[(3S)-morpholin-3-yl]-1,3,4-oxadiazol-2-yl]amino]phenyl]methyl]-2-methyl-piperazine-1-carboxylate dihydrochloride]	39	62.3	36.8
Cc1cc(CN2CCN(C(=O)OC(C)C)[C@@H](C)C2)c(C)c(Nc2nnc([C@@H](C)O)o2)c1 [Example 56, isopropyl (2S)-4-[[3-[[5-[(1R)-1-hydroxyethyl]-1,3,4-oxadiazol-2-yl]amino]-2,5-dimethyl-phenyl]methyl]-2-methyl-piperazine-1-carboxylate]	36.5	51.9	92.2
Cc1cc(CN2CCN(C(=O)OC(C)C)[C@@H](C)C2)c(C)c(Nc2nnc(C[C@@H](O)C(F)(F)F)o2)c1 [Example 57, isopropyl (2S)-4-[[2,5-dimethyl-3-[[5-[(2R)-3,3,3-trifluoro-2-hydroxy-propyl]-1,3,4-oxadiazol-2-yl]amino]phenyl]methyl]-2-methyl-piperazine-1-carboxylate]	23.8	46.5	96.7
Cc1cc(CN2CCN(C(=O)OC(C)C)[C@@H](C)C2)c(C)c(Nc2nnc(C3CCNC(=O)C3)o2)c1 (stereo partly drawn) [Example 58, isopropyl (2S)-4-[[2,5-dimethyl-3-[[5-(2-oxo-4-piperidyl)-1,3,4-oxadiazol-2-yl]amino]phenyl]methyl]-2-methyl-piperazine-1-carboxylate]	54.4	373	215
Cc1cc(CN2CCN(C(=O)OC(C)C)[C@@H](C)C2)c(C)c(Nc2nnc(-c3ccnn3C)o2)c1 [Example 59, isopropyl (2S)-4-[[2,5-dimethyl-3-[[5-(2-methylpyrazol-3-yl)-1,3,4-oxadiazol-2-yl]amino]phenyl]methyl]-2-methyl-piperazine-1-carboxylate]	25.7	123	211
Cc1cc(CN2CCN(C(=O)OC(C)C)[C@@H](C)C2)c(C)c(Nc2nnc(C[C@H](C)O)o2)c1 [Example 60, isopropyl (2S)-4-[[3-[[5-[(2S)-2-hydroxypropyl]-1,3,4-oxadiazol-2-yl]amino]-2,5-dimethyl-phenyl]methyl]-2-methyl-piperazine-1-carboxylate]	38.3	106	195
Cc1cc(CN2CCN(C(=O)OC(C)C)[C@@H](C)C2)c(C)c(Nc2nnc(C[C@@H](C)O)o2)c1 [Example 61, isopropyl (2S)-4-[[3-[[5-[(2R)-2-hydroxypropyl]-1,3,4-oxadiazol-2-yl]amino]-2,5-dimethyl-phenyl]methyl]-2-methyl-piperazine-1-carboxylate]	42.3	106	101
